The text below walks through data of US9861689B2, “Vaccination with immuno-isolated cells producing an immunomodulator” (MaxiVAX SA, priority 2015, dated 2018).

Experiment [1] deals with STAT5 A/B [pTyr694/699]. Nature of the experiment: LanthaScreen STAT5 TF-1 Activator Screen, GM-CSF Stimulation. The settings on record: cell supernatant. In kind it is cell-based. On the procedure:
A functional cell-based assay was performed in order to determine the biological activity of the GM-CSF produced by the MVX-1 cell line. Two samples of the cell supernatant containing the produced GM-CSF were tested in duplicate using the LanthaScreen™ Cellular Assay (ThermoFisher Scientific), which uses time-resolved resonance energy transfer (TR-FRET) between a terbium-labeled phosphorylation-site specific antibody (PSSA) and a green fluorescent protein (GFP fusion of a particular kinase substrate to provide an assay readout that is ratiometric, robust, and amenable to high-throughput screening (HTS) applications. The use of a GFP fusion of the target along with a single detection antibody simplifies the assay protocol, eliminates the need for beads or additional reagents, and simplifies the assay relative to other two-antibody “sandwich” approaches.
1. 32 μL of cells diluted in Assay Media to appropriate cell density are added to the assay plate. […]
4. The assay plate is incubated at 37° C./5% CO2 in a humidified incubator for a pre-determined length of time (cell line/assay specific).
5. Cells are lysed by the addition of lysis buffer with a pre-determined concentration of Tb-labeled Ab (assay specific).
6. The assay plates are incubated in the dark at room temperature for a pre-determined length of time (assay specific).
7. Read plate on a fluorescence plate reader. […]

The test system of experiment [2] is STAT5 A/B [pTyr694/699]. The following applies: STAT5 TF-1 cell line, inhibitor mode, GM-CSF stimulation; representative value; cited from earlier work.
For experiment [3], the system named is STAT5 A/B [pTyr694/699]. The settings on record: STAT5 TF-1 cell line, activator mode; representative value; cited from earlier work.

“GM-CSF produced by the MVX-1 cell line: huGM-CSF in cell supernatant of the genetically modified MVX-1 cell line”: the “results of the functional cell-based assay” value in experiment [1] (two samples in duplicate (FIGS. 7A-D)) is given as “all positive”. The “biological activity compared with commercially available GM-CSF” value in experiment [1] (two samples in duplicate, within the limitations of the assay) is reported as “equivalent to commercially available GM-CSF”.

For orientation: IC50 means the concentration that inhibits the measured activity by half. As to JAK Inhibitor I, the IC50 in experiment [2] is 37.3 nM.

A word on the EC50: it is the concentration needed to bring the measured effect to its halfway point. Turning to “granulocyte macrophage-colony stimulating factor [GM-CSF]”, in experiment [3], the EC50 is 0.003 nM.
